Source: article PMC11727701 (Drug Design, Development and Therapy, 2025)

Target: NaV1.5 (Homo sapiens, UniProt Q14524)
Experiment: manual whole-cell patch clamp in CHL cells stably expressing SCN5A
Assay type: cell-based

Chain of NaV1.5 (Q14524 whole entry): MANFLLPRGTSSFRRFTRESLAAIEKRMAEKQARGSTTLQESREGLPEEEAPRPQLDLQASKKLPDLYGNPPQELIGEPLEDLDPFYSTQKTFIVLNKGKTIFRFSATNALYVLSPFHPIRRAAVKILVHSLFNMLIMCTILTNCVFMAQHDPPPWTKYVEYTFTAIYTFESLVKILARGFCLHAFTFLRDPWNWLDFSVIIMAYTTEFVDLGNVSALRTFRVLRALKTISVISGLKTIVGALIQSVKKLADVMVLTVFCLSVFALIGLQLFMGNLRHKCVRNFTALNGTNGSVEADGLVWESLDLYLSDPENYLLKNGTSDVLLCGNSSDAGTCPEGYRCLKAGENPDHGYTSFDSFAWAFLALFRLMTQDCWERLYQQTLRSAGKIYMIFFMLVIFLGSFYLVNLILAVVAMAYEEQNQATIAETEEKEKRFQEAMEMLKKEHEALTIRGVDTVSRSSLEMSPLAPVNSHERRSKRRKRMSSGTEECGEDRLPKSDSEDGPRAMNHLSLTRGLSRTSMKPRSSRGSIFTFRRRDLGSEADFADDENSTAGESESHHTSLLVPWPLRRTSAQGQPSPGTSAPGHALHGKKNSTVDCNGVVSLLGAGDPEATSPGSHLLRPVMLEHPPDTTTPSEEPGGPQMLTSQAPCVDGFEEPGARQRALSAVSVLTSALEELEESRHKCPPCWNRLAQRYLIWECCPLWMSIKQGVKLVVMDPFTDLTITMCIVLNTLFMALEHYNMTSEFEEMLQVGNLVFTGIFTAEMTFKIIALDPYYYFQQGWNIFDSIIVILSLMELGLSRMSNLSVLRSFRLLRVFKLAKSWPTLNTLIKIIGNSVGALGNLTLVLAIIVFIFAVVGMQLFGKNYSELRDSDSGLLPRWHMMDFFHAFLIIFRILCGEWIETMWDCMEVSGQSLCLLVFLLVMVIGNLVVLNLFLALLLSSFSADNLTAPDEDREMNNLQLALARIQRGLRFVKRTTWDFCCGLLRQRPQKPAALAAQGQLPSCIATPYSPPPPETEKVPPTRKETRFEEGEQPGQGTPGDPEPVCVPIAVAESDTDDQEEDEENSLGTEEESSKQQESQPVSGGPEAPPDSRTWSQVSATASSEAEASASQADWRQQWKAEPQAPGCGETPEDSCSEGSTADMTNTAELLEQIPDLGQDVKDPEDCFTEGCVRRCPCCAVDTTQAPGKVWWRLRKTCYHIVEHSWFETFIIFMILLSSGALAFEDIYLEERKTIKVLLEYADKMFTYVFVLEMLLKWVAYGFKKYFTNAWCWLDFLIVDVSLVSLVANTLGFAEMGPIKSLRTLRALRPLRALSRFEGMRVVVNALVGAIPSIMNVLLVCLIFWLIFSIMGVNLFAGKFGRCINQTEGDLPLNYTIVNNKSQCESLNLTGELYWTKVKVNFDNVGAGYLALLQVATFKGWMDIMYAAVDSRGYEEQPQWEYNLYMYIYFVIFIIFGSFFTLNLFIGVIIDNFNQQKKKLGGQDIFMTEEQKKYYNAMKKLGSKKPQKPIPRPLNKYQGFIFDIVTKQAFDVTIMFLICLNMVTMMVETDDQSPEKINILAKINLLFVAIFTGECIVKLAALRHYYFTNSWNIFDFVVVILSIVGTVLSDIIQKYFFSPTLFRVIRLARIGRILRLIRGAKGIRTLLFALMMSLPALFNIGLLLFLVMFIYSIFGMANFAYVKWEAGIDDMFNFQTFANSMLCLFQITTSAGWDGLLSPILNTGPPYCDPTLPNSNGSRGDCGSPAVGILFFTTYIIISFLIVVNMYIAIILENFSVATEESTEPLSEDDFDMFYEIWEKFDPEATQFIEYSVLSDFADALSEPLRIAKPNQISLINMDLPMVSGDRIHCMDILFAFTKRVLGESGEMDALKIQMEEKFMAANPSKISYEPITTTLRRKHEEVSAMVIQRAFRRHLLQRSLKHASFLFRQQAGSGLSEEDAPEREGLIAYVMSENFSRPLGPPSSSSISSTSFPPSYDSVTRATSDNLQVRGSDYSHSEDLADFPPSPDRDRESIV

Question: Which IC50 does the source give for CCCCCCCCCCCC(=O)O [LA, lauric acid] here?
Answer: 27.4 ± 12.8 µM
